Experimental data published in patent US20220125853A1, “MATERIALS AND METHODS FOR ENHANCING BONE CELL DIFFERENTIATION” (Mayo Foundation for Medical Education and Research, priority 2016, published 2022).

What was measured:
BMSCs = assay: RNA-seq analysis of BMSCs in response to CytoD; assay type: cell-based; details: 24 hour
[1] = system: adipose tissue-derived MSCs (AMSCs); assay: Osteogenic differentiation of AMSCs (alkaline phosphatase activity, mineralization, osteogenic polypeptide expression); assay type: cell-based, human; details: throughout the cell culture time-course
From the text: (§1) The effect of CytoD on adipose tissue-derived MSCs (AMSCs) was investigated. AMSCs offer several advantages over other sources of MSCs, particularly in the ease of tissue harvest, isolation and expansion to generate sufficient cell numbers for therapy. Because AMSCs have limited osteogenic potential, it is necessary to design molecular strategies to improve their ability to attain a mature osteoblastic phenotype. […] Furthermore, CytoD decreased protein levels of Enhancer of Zeste Homolog 2 (EZH2), an epigenetic suppressor of osteogenic differentiation that mediates heterochromatinization of bone-related genes by trimethylation of histone 3 lysine 27 (H3K27me3).

[2] = system: Enhancer of Zeste Homolog 2 (EZH2); assay: EZH2 protein levels and H3K27me3 marks in AMSCs; assay type: cell-based, human
From the text: as §1

AMSCs = assay: RNA-seq analysis of AMSCs in response to CytoD; assay type: cell-based, human; details: 24 hour
From the text: as §1

skeletally mature mice = assay: Bone anabolic effect of EZH2 inactivation in skeletally mature mice; assay type: in vivo
From the text: (§2) Bone stimulatory therapeutics that promote bone formation include bone morphogenetic proteins (e.g., BMP2) and intermittent treatment with parathyroid hormone (PTH) or PTH related protein, as well as antibody-suppression of WNT inhibitors (e.g., SOST). Furthermore, inactivation of EZH2, an epigenetic regulator with histone 3 lysine 27 (H3K27) methyltransferase activity, using a pharmacological inhibitor (GSK126) is bone anabolic in skeletally mature mice and osteo-protective in estrogen-depleted (ovariectomized) mice. These biological effects are directly related to the ability of EZH2 inhibition to promote osteogenic differentiation and inhibit adipogenic differentiation of mesenchymal stem cells.

[3] = system: estrogen-depleted (ovariectomized) mice; assay: Osteo-protective effect of EZH2 inactivation in estrogen-depleted (ovariectomized) mice; assay type: in vivo
From the text: as §2

MC3T3 cells = assay: mRNAseq gene expression in differentiating MC3T3 cells / preosteoblasts; assay type: cell-based
Description: The molecular mechanisms by which EZH2 inhibition promotes osteogenic differentiation were assessed. […] This quiescent state is conducive for expression of bone-related extracellular matrix proteins (e.g., collagens) that support matrix mineralization. […] Several Wnt ligands (e.g., Wnt10b, Wnt10a, and Wnt6) are robustly expressed in differentiating MC3T3 cells.

In the case of `C=C1[C@@H](C)[C@H]2[C@H](Cc3ccccc3)NC(=O)[C@]23[C@H](OC(C)=O)/C=C/[C@@](C)(O)C(=O)[C@@H](C)C/C=C/[C@H]3[C@@H]1O` [CytoD, cytochalasin D], the “program of other osteogenic markers, including those linked to the BMP2-RUNX2 axis (e.g., SP7)” value (BMSCs) is reported as “significant upregulation”, the alkaline phosphatase activity [1] is reported as “significant increases” and the “expression of osteogenic polypeptides RUNX2, ALP, OPG and TGFβ3” value [1] is reported as “significant increases”. For the same compound, the mineralization [1] was “significant increases”, the “levels of H3K27me3 marks” value [2] was “decreased levels” and the “protein levels of EZH2” value [2] was “decreased”. For the same compound, the “program of other osteogenic markers, including those linked to the BMP2-RUNX2 axis (e.g., SP7)” value (AMSCs) was “significant upregulation”.

With `CC[C@H](C)n1cc(C)c2c(C(=O)NCc3c(C)cc(C)[nH]c3=O)cc(-c3ccc(N4CCNCC4)nc3)cc21` [GSK126] the effect on bone (skeletally mature mice) was “bone anabolic”, the effect on bone [3] was “osteo-protective” and the “expression of pro-osteogenic Wnt10b” value (MC3T3 cells; differentiating MC3T3 cells, EZH2 inhibition) was “greatly up-regulated”. For the same compound, the “expression of the PTH receptor (Pthr1h)” value (MC3T3 cells; preosteoblasts) was “enhanced”.
